One compound from patent publication US12527849B2, “Apparatus for determining administration form of a composition of an engineered virus-based nanoparticle for a treatment of an autoimmune condition” (Diamante Srl, priority 2021, dated 2026) can be followed below.

This assay concerns IL-12p70. Description: Pro-inflammatory cytokines in sera of CIA Collagen mice (ELISA, day 58): IL-12p70. The assay is classed as in vivo. To be noted: Dexamethasone oral 1 mg/kg, 20 times between day 28 and 57. As for the experimental part:
Critical administration 124 disclosed herein is further described below. Q5D represents administration 5 days a part. TBSV·pLIp1 and wt TBSV shown in Table 1 may include liquid form that are not sterile and stored in −20° C. TBSV·pLIp1 may be given at the dose of 50 μG/100 μL Male DBA/1J mice (8 weeks; Envigo, Italy) may be used for these studies. Mice may be housed in individual cages (two for each group) and maintained under a 12:12 light-dark cycle at 21° C.±1° C. and 50%±5% humidity. The animals may be acclimated to their environment for 1 week and had ad libitum access to tap water and standard rodent diet. All animal experiments may be complied with regulations in Italy (D.M. 116192), Europe (O.J of E.C. L 358/112/18/1986), and the United States (Animal Welfare Assurance Number A5594-01, Department of Health and Human Services, USA). […] Arthritis was assessed by using qualitative severity score system and hind paw volume (mL) measured by a plethysmometer on day 20, 22, 24, 26, 28, 30, 32, 34, 36, 38, 40, 42, 44, 46 48, 50, 52, 54, 56 and 58. Body weight was recorded on day 0, 6, 13, 16, 18, 20, 22, 24, 26, 28, 30, 32, 34, 36, 38, 40, 42, 44, 46, 50, 52, 54, 56 and 58. […]

As for `C[C@@H]1C[C@H]2[C@@H]3CCC4=CC(=O)C=C[C@]4(C)[C@@]3(F)[C@@H](O)C[C@]2(C)[C@@]1(O)C(=O)CO` [Dexamethasone, dexamethasone], the “IL-12p70, % of reduction vs CIA Collagen” value turned out to be 37.95%.
